Data reported in US20100234377A1 (priority 2007, published 2010).

What follows are compounds tested against T1, human Prostaglandin D Synthase (GST2) (Homo sapiens, UniProt O60760) (assay: Homogeneous biochemical assay of human Prostaglandin D Synthase (GST2) based on its glutathion-S-transferase activity (GSH conjugation to monochlorobimane, fluorescence)). Conditions: given beside the compound name in Examples 1 to 167; read-out: Potency Range (GST2 IC50).
T1 construct: the open reading frame of human Prostaglandin D Synthase was amplified from cDNA; made in house; host or cells: E. coli TOP10F'
T1 sequence (O60760 whole entry): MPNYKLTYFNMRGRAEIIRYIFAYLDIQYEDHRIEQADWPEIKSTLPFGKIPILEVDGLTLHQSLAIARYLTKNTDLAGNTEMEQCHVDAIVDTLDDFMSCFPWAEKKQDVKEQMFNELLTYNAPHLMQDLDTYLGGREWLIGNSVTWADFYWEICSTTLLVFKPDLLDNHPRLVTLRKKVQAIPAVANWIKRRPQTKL
Text: Homogeneous, Biochemical Assay Monitoring the Activity of Human Prostaglandin D Synthase Based on the Glutathion-S-Transferase Activity of the Enzyme
Prostaglandin D2 synthesis by Prostaglandin D synthase (GST2) requires transfer of Glutathion (GSH) to the substrate, Prostaglandin H2. […] Since the Prostaglandin D2 synthesis is absolutely dependent on the GST activity of the enzyme, assays monitoring the GST activity should allow to identify specific inhibitors of Prostaglandin D2 synthetic activity. The assay principle used is based on enzymatic conjugation of GSH to Monochlorobimane (MCB), that becomes fluorescent upon this chemical modification. Therefore, the enzymatic reaction can be monitored by total fluorescence measurement.
In brief, the open reading frame of human Prostaglandin D Synthase was amplified from cDNA using the primer pair:
This construct allows prokaryotic expression of Prostaglandin D Synthase as fusion protein with a N-terminal hexa-histidine tag, referred to as NHis-Prostaglandin D Synthase.
Expression of NHis-Prostaglandin D Synthase was in E. coli TOP10F′ (Invitrogen, Germany, cat. no. C3030-03). […] When the culture had reached a density corresponding to an A600 of 0.6, an equal volume of room temperature LB/ampicillin was added. […] Cells harvested by centrifugation were resuspended in 50 mM tris(hydroxymethyl)aminomethane hydrochloride pH 7.5 (Tris/HCl, Sigma, cat. no. T5941).
Removal of unbound material was with 100 ml lysis buffer. Elution was with 50 ml of 50 mM Tris/HCl pH 7.5, 300 mM imidazol (Sigma, Germany, cat. no. I2399)/HCl pH 7.5). […] Aliquots were shock frozen in liquid nitrogen and stored at −80° C.
All assay components were diluted in reaction buffer, 50 mM MES/KOH (pH 6.1), 0.7 mM GSH (Sigma, G4251), 2 mM MgCl2 (Sigma, M2670), 0.05% Pluronic F127 (Sigma, P2443), and stored on ice prior to use. Compounds were diluted in 90% DMSO yielding final assay concentrations from the picomolar to three digit micromolar range.
Total fluorescent measurement was carried out with excitation and emission wavelength of 390 and 460 nm, respectively (BMG Fluostar Optima).

| SMILES | IC50 |
| --- | --- |
| O=C(c1cccc(F)n1)N1CCN(C(=S)Nc2ccc(C(F)(F)F)cc2)CC1 [Compound 20, 4-(6-Fluoro-pyridine-2-carbonyl)-piperazine-1-carbothioic acid (4-trifluoromethyl-phenyl)-amide] | 101 to 1000 nM |
| O=C(c1cccc(F)c1)N1CCN(C(=S)Nc2ccc(C(F)(F)F)cc2)CC1 [Compound 23, 4-(3-Fluoro-benzoyl)-piperazine-1-carbothioic acid (4-trifluoromethyl-phenyl)-amide] | 11 to 100 nM |
| O=C(Nc1cc(Cl)nc(Cl)c1)N1CCN(C(=O)c2cccc(F)c2)CC1 [Compound 24, 4-(3-Fluoro-benzoyl)-piperazine-1-carboxylic acid (2,6-dichloro-pyridin-4-yl)-amide] | 101 to 1000 nM |
| O=C(Nc1cccc(Oc2ccccc2)c1)N1CCN(C(=O)c2cccc(F)c2)CC1 [Compound 25, 4-(3-Fluoro-benzoyl)-piperazine-1-carboxylic acid (3-phenoxy-phenyl)-amide] | 11 to 100 nM |
| O=C(Nc1ccc(Oc2ccccc2)cc1)N1CCN(C(=O)c2cccc(F)c2)CC1 [Compound 26, 4-(3-Fluoro-benzoyl)-piperazine-1-carboxylic acid (4-phenoxy-phenyl)-amide] | 11 to 100 nM |
| O=C(Nc1ccc2sccc2c1)N1CCN(C(=O)c2cccc(F)c2)CC1 [Compound 27, 4-(3-Fluoro-benzoyl)-piperazine-1-carboxylic acid benzo[b]thiophen-5-ylamide] | 11 to 100 nM |
| O=C(Nc1ccc(-c2cccs2)cc1)N1CCN(C(=O)c2cccc(F)c2)CC1 [Compound 28, 4-(3-Fluoro-benzoyl)-piperazine-1-carboxylic acid (4-thiophen-2-yl-phenyl)-amide] | 11 to 100 nM |
| O=C(Nc1cccc(Br)c1)N1CCN(C(=O)c2cccc(F)c2)CC1 [Compound 32, 4-(3-Fluoro-benzoyl)-piperazine-1-carboxylic acid (3-bromo-phenyl)-amide] | 11 to 100 nM |
| CCOC(=O)c1ccc(NC(=O)N2CCN(C(=O)c3cccc(F)c3)CC2)cc1 [Compound 33, 4-{[4-(3-Fluoro-benzoyl)-piperazine-1-carbonyl]-amino}-benzoic acid ethyl ester] | 101 to 1000 nM |
| N#Cc1cccc(NC(=O)N2CCN(C(=O)c3cccc(F)c3)CC2)c1 [Compound 35, 4-(3-Fluoro-benzoyl)-piperazine-1-carboxylic acid (3-cyano-phenyl)-amide] | 11 to 100 nM |
| O=C(Nc1cccc([N+](=O)[O-])c1)N1CCN(C(=O)c2cccc(F)c2)CC1 [Compound 36, 4-(3-Fluoro-benzoyl)-piperazine-1-carboxylic acid (3-nitro-phenyl)-amide] | 101 to 1000 nM |
| O=C(Nc1ccc([N+](=O)[O-])cc1)N1CCN(C(=O)c2cccc(F)c2)CC1 [Compound 37, 4-(3-Fluoro-benzoyl)-piperazine-1-carboxylic acid (4-nitro-phenyl)-amide] | 101 to 1000 nM |
| O=C(c1cccc(F)n1)N1CCN(C(=S)Nc2ccc(N3CCOCC3)c(F)c2)CC1 [Compound 40, 4-(6-Fluoro-pyridine-2-carbonyl)-piperazine-1-carbothioic acid (3-fluoro-4-morpholin-4-yl-phenyl)-amide] | 101 to 1000 nM |
| O=C(c1ccccc1)c1ccc(NC(=O)N2CCN(C(=O)c3cccc(F)c3)CC2)cc1 [Compound 42, 4-(3-Fluoro-benzoyl)-piperazine-1-carboxylic acid (4-benzoyl-phenyl)-amide] | 11 to 100 nM |
| O=C(Nc1ccc(Br)c(-c2ccncc2)c1)N1CCN(C(=O)c2cccc(F)c2)CC1 [Compound 43, 4-(3-Fluoro-benzoyl)-piperazine-1-carboxylic acid (4-bromo-3-pyridin-4-yl-phenyl)-amide] | 11 to 100 nM |
| O=C(Nc1ccc(Oc2cccnc2)nc1)N1CCN(C(=O)c2cccc(F)c2)CC1 [Compound 44, 4-(3-Fluoro-benzoyl)-piperazine-1-carboxylic acid [6-(pyridin-3-yloxy)-pyridin-3-yl]-amide] | 101 to 1000 nM |
| O=C(Nc1cnc2ccccc2c1)N1CCN(C(=O)c2cccc(F)c2)CC1 [Compound 45, 4-(3-Fluoro-benzoyl)-piperazine-1-carboxylic acid quinolin-3-ylamide] | 101 to 1000 nM |
| O=C(Nc1ccc([N+](=O)[O-])cc1)N1CCN(C(=O)c2cc(F)ccc2F)CC1 [Compound 49, 4-(2,5-Difluoro-benzoyl)-piperazine-1-carboxylic acid (4-nitro-phenyl)-amide] | 101 to 1000 nM |
| CCCCNC(=O)N1CCN(c2ccc(NC(=O)N3CCN(C(=O)c4cccc(F)c4)CC3)cc2F)CC1 [Compound 53] | 11 to 100 nM |
| Cc1cc(NC(=O)N2CCN(C(=O)c3cccc(F)c3)CC2)no1 [Compound 62, 4-(3-Fluoro-benzoyl)-piperazine-1-carboxylic acid (5-methyl-isoxazol-3-yl)-amide] | 101 to 1000 nM |
| O=C(Nc1nc2ccccc2[nH]1)N1CCN(C(=O)c2cccc(F)c2)CC1 [Compound 64, 4-(3-Fluoro-benzoyl)-piperazine-1-carboxylic acid (1H-benzoimidazol-2-yl)-amide] | 101 to 1000 nM |

Other lines, results leading:

| IC50 | SMILES |
| --- | --- |
| 101 to 1000 nM | O=C(Nc1cccc(N2CCOCC2)c1)N1CCN(C(=O)c2cccc(F)c2)CC1 [Compound 31, 4-(3-Fluoro-benzoyl)-piperazine-1-carboxylic acid (3-morpholin-4-yl-phenyl)-amide] |
| 11 to 100 nM | COC(=O)c1cccc(NC(=O)N2CCN(C(=O)c3cccc(F)c3)CC2)c1 [Compound 34, 3-{[4-(3-Fluoro-benzoyl)-piperazine-1-carbonyl]-amino}-benzoic acid methyl ester] |
| 11 to 100 nM | O=C(Nc1ccc(N2CCOCC2)c(Cl)c1)N1CCN(C(=O)c2cccc(F)c2)CC1 [Compound 38, 4-(3-Fluoro-benzoyl)-piperazine-1-carboxylic acid (3-chloro-4-morpholin-4-yl-phenyl)-amide] |
| 11 to 100 nM | O=C(Nc1ccc(N2CCOCC2)c(F)c1)N1CCN(C(=O)c2cccc(F)c2)CC1 [Compound 41, 4-(3-Fluoro-benzoyl)-piperazine-1-carboxylic acid (3-fluoro-4-morpholin-4-yl-phenyl)-amide] |
| 11 to 100 nM | CC(C)(C)OC(=O)N1CCN(c2ccc(NC(=O)N3CCN(C(=O)c4cccc(F)c4)CC3)cc2F)CC1 [Compound 46, 4-(2-Fluoro-4-{[4-(3-fluoro-benzoyl)-piperazine-1-carbonyl]-amino}-phenyl)-piperazine-1-carboxylic acid tert-butyl ester] |
| 101 to 1000 nM | O=C(Nc1ccc(N2CCOCC2)c(F)c1)N1CCN(C(=O)c2cc(F)ccc2F)CC1 [Compound 47, 4-(2,5-Difluoro-benzoyl)-piperazine-1-carboxylic acid (3-fluoro-4-morpholin-4-yl-phenyl)-amide] |
| 101 to 1000 nM | CC(C)(C)OC(=O)N1CCN(c2ccc(NC(=O)N3CCN(C(=O)c4cc(F)ccc4F)CC3)cc2F)CC1 [Compound 48, 4-(4-{[4-(2,5-Difluoro-benzoyl)-piperazine-1-carbonyl]-amino}-2-fluoro-phenyl)-piperazine-1-carboxylic acid tert-butyl ester] |
| 11 to 100 nM | O=C(Nc1ccc(N2CCN(C(=O)NC3CCCC3)CC2)c(F)c1)N1CCN(C(=O)c2cccc(F)c2)CC1 [Compound 54, N-{4-[4-(cyclopentylcarbamoyl)piperazin-1-yl]-3-fluorophenyl}-4-(3-fluorobenzoyl)piperazine-1-carboxamide] |
| 101 to 1000 nM | CC(C)NC(=O)N1CCN(c2ccc(NC(=O)N3CCN(C(=O)c4cc(F)ccc4F)CC3)cc2F)CC1 [Compound 55, 4-(2,5-difluorobenzoyl)-N-{3-fluoro-4-[4-(isopropylcarbamoyl)piperazin-1-yl]phenyl}piperazine-1-carboxamide] |
| 11 to 100 nM | CC(C)(C)C(=O)N1CCN(c2ccc(NC(=O)N3CCN(C(=O)c4cccc(F)c4)CC3)cc2F)CC1 [Compound 56, 4-(3-Fluoro-benzoyl)-piperazine-1-carboxylic acid {4-[4-(2,2-dimethyl-propionyl)-piperazin-1-yl]-3-fluoro-phenyl}-amide] |
| 11 to 100 nM | CC(C)C(=O)N1CCN(c2ccc(NC(=O)N3CCN(C(=O)c4cccc(F)c4)CC3)cc2F)CC1 [Compound 57, 4-(3-Fluoro-benzoyl)-piperazine-1-carboxylic acid [3-fluoro-4-(4-isobutyryl-piperazin-1-yl)-phenyl]-amide] |
| 101 to 1000 nM | CC(C)C(=O)N1CCN(c2ccc(NC(=O)N3CCN(C(=O)c4cc(F)ccc4F)CC3)cc2F)CC1 [Compound 58, 4-(2,5-Difluoro-benzoyl)-piperazine-1-carboxylic acid [3-fluoro-4-(4-isobutyryl-piperazin-1-yl)-phenyl]-amide] |
| 101 to 1000 nM | CC(=O)N1CCN(c2ccc(NC(=O)N3CCN(C(=O)c4cccc(F)c4)CC3)cc2)CC1 [Compound 61] |
